Patent publication US20250195463A1, “ORGANOMETALLIC COMPLEX, CONTROLLED-RELEASE MULTI-FUNCTIONAL DRUG, PHARMACEUTICAL COMPOSITION, PROCESSES FOR THE PREPARATION THEREOF AND THEIR USE” (FACULDADE DE CIÊNCIAS DA UNIVERSIDADE DE LISBOA, priority 2022, published 2025)

Legend:
MDA-MB-231 (FGFR−) = experiment: MTT cytotoxicity assay; details: MDA-MB-231
Protocol: By way of example, the in vitro cytotoxicity of the conjugate RuPC1, complex 4 and peptide P2 was determined in four human breast cancer cell lines with different levels of expression of the receptor FGFR, namely MDA-MB-231 (FGFR−), MCF-7 (FGFR−), SK-BR-3 (FGFR+), and MDA-MB-134-VI (FGFR+). The cytotoxicity of RuPC1 was also determined in the stated cell lines at controlled pH 6.8 and 7.4. The cytotoxicity of the complexes 5, 8, 9, and the reference complex (2,2′-bipyridyl)(triphenylphosphane)(f-cyclopentadienyl)ruthenium(II) trifluoromethanesulfonate, [RuCp(PPh3)(bipy)][CF3SO3] (TM34) was only determined in the cell line MDA-MB-231. All the cell lines were from the American Type Culture Collection (ATCC) and were cultured in Dulbecco's Modified Eagle Medium+Glutamax-I (Gibco) supplemented with 10% fetal bovine serum (FBS) and 1% antibiotics, excepting the MDA-MB-134-VI for which it was used the double amount of FBS. The cell cultures were kept in an incubator Heraeus at 37° C. under humidified atmosphere at 5% CO2. The cell viability was evaluated resorting to the MTT ([3-(4,5-dimethylthiazol-2-yl)-2,5-diphenyltetrazolium bromide]) colorimetric assay, which is based on the reduction of the tetrazolium salt to purple formazan by mitochondrial dehydrogenases in metabolically active cells. For the assays, the cells were seeded in 96-well plates (2×10^4 to 3×10^4 cells/200 μL) and allowed to adhere overnight. The compounds were first dissolved in dimethyl sulfoxide to obtain 10 mM stock solutions, further used to prepare the working solutions, at 0.1 to 100 μM, by dilution in the cell culture medium. Alternatively, for the assays at controlled pH 6.8 and 7.4, RuPC1 was first dissolved in a solution of 15% dimethyl sulfoxide/85% phosphate buffer (10 mM in water) to obtain 1.5 mM stock solutions further incubated for 48 hours at both pH values prior to be used to prepare the working solutions, at 0.1 to 50 μM, by dilution in the cell culture medium. In both cases, after continuous exposure of the cells to the compounds for 48 h at 37° C., the medium was removed and the cells were incubated with 200 μL of MTT solution (0.5 mg/mL) for 3 h. Then, the solution was discarded and the purple formazan formed by the viable cells was dissolved in 200 μL of dimethyl sulfoxide. The cell viability (%) was determined relative to the control (cells incubated without compounds) by measuring the absorbance at 570 nm on a PowerWave Xs Bio-Tek Instruments plate spectrophotometer. The respective values of the half maximal inhibitory concentration (IC50) were calculated with the software GraphPad Prism. All the compounds were tested in at least two independent experiments, each comprising six replicates per concentration.

[1] = Stability in aqueous medium (dimethyl sulfoxide/Dulbecco's Modified Eagle Medium) by UV-Vis spectroscopy; assay type: physicochemical; details: 5% dimethyl sulfoxide/95% Dulbecco's Modified Eagle Medium; for Relative variation of the maximum absorbance of the π→π* transitions: band 292-296 nm (λmax in column head); for Relative variation of the maximum absorbance of the charge transfer bands: band 358-400 nm (λmax in column head)
Protocol: (§1) The stability of the complexes 4-11 in organic and aqueous media was evaluated over 24 h by UV-Vis spectroscopy at room temperature, in dark, on a Jasco V-660 spectrometer using quartz cuvettes (1 cm optical path length). The electronic spectra (270-900 nm) were acquired at regular periods of time (0 h, 0.25 h, 0.5 h, 0.75 h, 1 h, 2 h, 3 h, 4 h, 5 h, 6 h, 24 h) for solutions of 100% dimethyl sulfoxide (complexes 4-11) and 5% dimethyl sulfoxide/95% Dulbecco's Modified Eagle Medium (complexes 4, 5 and 8-11) or 10% dimethyl sulfoxide/90% Dulbecco's Modified Eagle Medium (complexes 6 and 7) at concentrations ranging from 7.0×10^-5 M to 3.0×10^-4 M.

[2] = Stability in organic medium (dimethyl sulfoxide) by UV-Vis spectroscopy; assay type: physicochemical; details: for Relative variation of the maximum absorbance of the π→π* transitions: band 289-300 nm (λmax in column head); for Relative variation of the maximum absorbance of the charge transfer bands: band 357-425 nm (λmax in column head)
Protocol: as §1

In the case of O=C(Cc1ccccc1)C1=C[CH]([Ru-]2([PH](c3ccccc3)(c3ccccc3)c3ccccc3)[n+]3ccccc3-c3cccc[n+]32)C=C1.O=S(=O)([O-])C(F)(F)F (stereo not shown) [compound 9], the “IC50 range in words” value (MDA-MB-231 (FGFR−); Example 24) is reported as “sub-micromolar range”, the IC50 (MDA-MB-231 (FGFR−); read-out: Cytotoxic activity expressed as IC50, Table 5, 48 h, 37° C.) is reported as 310 nM and the “Relative variation of the maximum absorbance of the π→π* transitions” value (from here on “Relative variation … of the π→π* transitions”) ([1]; time 0 h) is reported as 0.0%. The “Relative variation of the maximum absorbance of the charge transfer bands” value ([1]; time 0 h) was 0.0%, the “Relative variation … of the π→π* transitions” value ([1]; time 0.25 h) was −0.2% and the “Relative variation of the maximum absorbance of the charge transfer bands” value ([1]; time 0.25 h) was −0.7%. The “Relative variation … of the π→π* transitions” value ([1]; time 0.5 h) was −0.3%, the “Relative variation of the maximum absorbance of the charge transfer bands” value ([1]; time 0.5 h) was −0.8% and the “Relative variation … of the π→π* transitions” value ([1]; time 0.75 h) was −0.5%. The “Relative variation of the maximum absorbance of the charge transfer bands” value ([1]; time 0.75 h) was −0.9%, the “Relative variation … of the π→π* transitions” value ([1]; time 1 h) was −0.3% and the “Relative variation of the maximum absorbance of the charge transfer bands” value ([1]; time 1 h) was −1.0%. For the same compound, the “Relative variation … of the π→π* transitions” value ([1]; time 2 h) was −0.2%, the “Relative variation of the maximum absorbance of the charge transfer bands” value ([1]; time 2 h) was −1.2% and the “Relative variation … of the π→π* transitions” value ([1]; time 3 h) was −0.3%. The “Relative variation of the maximum absorbance of the charge transfer bands” value ([1]; time 3 h) was −1.4%, the “Relative variation … of the π→π* transitions” value ([1]; time 4 h) was −0.4% and the “Relative variation of the maximum absorbance of the charge transfer bands” value ([1]; time 4 h) was −1.5%. The “Relative variation … of the π→π* transitions” value ([1]; time 5 h) was −0.2%, the “Relative variation of the maximum absorbance of the charge transfer bands” value ([1]; time 5 h) was −1.6% and the “Relative variation … of the π→π* transitions” value ([1]; time 6 h) was −0.5%. For the same compound, the “Relative variation of the maximum absorbance of the charge transfer bands” value ([1]; time 6 h) was −1.7%, the “Relative variation … of the π→π* transitions” value ([1]; time 24 h) was 4.5% and the “Relative variation of the maximum absorbance of the charge transfer bands” value ([1]; time 24 h) was −0.2%. The “Relative variation … of the π→π* transitions” value ([2]; time 0 h) was 0.0%, the “Relative variation of the maximum absorbance of the charge transfer bands” value ([2]; time 0 h) was 0.0% and the “Relative variation … of the π→π* transitions” value ([2]; time 0.25 h) was 0.0%. For the same compound, the “Relative variation of the maximum absorbance of the charge transfer bands” value ([2]; time 0.25 h) was 0.2%, the “Relative variation … of the π→π* transitions” value ([2]; time 0.5 h) was −0.2% and the “Relative variation of the maximum absorbance of the charge transfer bands” value ([2]; time 0.5 h) was 0.2%. The “Relative variation … of the π→π* transitions” value ([2]; time 0.75 h) was −0.3%, the “Relative variation of the maximum absorbance of the charge transfer bands” value ([2]; time 0.75 h) was 0.2% and the “Relative variation … of the π→π* transitions” value ([2]; time 1 h) was −0.3%. For the same compound, the “Relative variation of the maximum absorbance of the charge transfer bands” value ([2]; time 1 h) was 0.3%, the “Relative variation … of the π→π* transitions” value ([2]; time 2 h) was −0.3% and the “Relative variation of the maximum absorbance of the charge transfer bands” value ([2]; time 2 h) was 0.6%. For the same compound, the “Relative variation … of the π→π* transitions” value ([2]; time 3 h) was −0.1%, the “Relative variation of the maximum absorbance of the charge transfer bands” value ([2]; time 3 h) was 0.9% and the “Relative variation … of the π→π* transitions” value ([2]; time 4 h) was −0.1%. For the same compound, the “Relative variation of the maximum absorbance of the charge transfer bands” value ([2]; time 4 h) was 0.6%, the “Relative variation … of the π→π* transitions” value ([2]; time 5 h) was −0.3% and the “Relative variation of the maximum absorbance of the charge transfer bands” value ([2]; time 5 h) was 0.4%. The “Relative variation … of the π→π* transitions” value ([2]; time 6 h) was −0.2%, the “Relative variation of the maximum absorbance of the charge transfer bands” value ([2]; time 6 h) was 0.7% and the “Relative variation … of the π→π* transitions” value ([2]; time 24 h) was −0.1%. The “Relative variation of the maximum absorbance of the charge transfer bands” value ([2]; time 24 h) was 0.8%.
